Where a name gives a salt, the structure may show the parent alone. Marks after values point to notes of the source that are not given here.
How the values were obtained:
[1] = conventional release preparations; cited from earlier work
Mice = experiment: Marble Burying Test (anxiolytic/tranquillizing activity); format: in vivo; conditions: 30 minutes before the test, 30 minute test
Protocol: Nefopam and (+)-nefopam were evaluated in the Marble Burying Test, a model which detects anxiolytic/tranquillizing activity. This is a general model for affective disorders.
The method follows that described by Broekkamp et al. (1986 Eur. J. Pharmacol., 126, 223-229. Mice exposed to novel objects (marbles) will bury them in the sawdust floor covering. Anxiolytics decrease the number of marbles buried at non-sedative doses.
Mice are individually placed in transparent plastic cages (33×21×18 cm) with 5 cm of sawdust on the floor and 25 marbles grouped in the centre of each cage. Each test cage is covered with an inverted plastic covering. Each test cage, together with the marbles, is impregnated with mouse odor beforehand, by leaving 10 mice in the cage for 15 minutes. These mice then play no further role in the experiment. The number of marbles covered by sawdust (⅔ or more) is counted at the end of a 30 minute test.
All compounds were administered i.p. 30 minutes before the test, and compared with a vehicle control group. Clobazam (8 mg/kg i.p.), administered under the same experimental conditions, was used as reference substance.

[2] = tested on: dopamine, norepinephrine and serotonin uptake; conditions: in vitro and in vivo; Fasmer et al., 1987; Rosland and Hole, 1990; Mather at al., 2001; cited from earlier work

| SMILES | elimination half-life [1] | Number of marbles buried (% change from ctrl) (Mice; 10 mg/kg ip) | Number of marbles buried (% change from ctrl) (Mice; 20 mg/kg ip) | Number of marbles buried (% change from ctrl) (Mice; 40 mg/kg ip) | order of potency (analgesic and dopamine, norepinephrine and serotonin uptake inhibitory properties) [2] | Number of marbles buried (% change from ctrl) (Mice; 32 mg/kg ip) |
| --- | --- | --- | --- | --- | --- | --- |
| CN1CCOC(c2ccccc2)c2ccccc2C1 (racemic) [Nefopam, 5-methyl-1-phenyl-3,4,5,6-tetrahydro-1H-2,5-benzoxazocine hydrochloride] | four | −66* % change from ctrl | −98* % change from ctrl | −100* % change from ctrl | – | – |
| CN1CCO[C@@H](c2ccccc2)c2ccccc2C1 [(+)-nefopam] | – | −56* % change from ctrl | −99* % change from ctrl | −100* % change from ctrl | (+)-nefopam>(±)-nefopam>(−)-nefopam | – |
| CN1C(=O)CC(=O)N(c2ccccc2)c2cc(Cl)ccc21 [Clobazam] | – | – | – | – | – | −75* % change from ctrl |

Source: US20100152152A1, “Therapeutic Use of Nefopam” (priority 2005, published 2010)
